Experimental data taken from the NIST ThermoML archive (doi:10.1021/je100848r).

What was measured:
[1] = 101 kPa, Liquid
[2] = xn = mol fraction of the nth substance listed; conditions: 101 kPa, Liquid

CCC(=O)[O-].OCC[NH2+]CCO [bis(2-hydroxyethyl)ammonium propanoate]
[1]
Conditions | mass density [kg/m3] | viscosity [mPa·s]
293.15 K | 1142.7 | 740.28
303.15 K | 1136.1 | 322.17
313.15 K | 1129.2 | 157.97
323.15 K | 1125.2 | 96.54

CCC(=O)[O-].OCC[NH2+]CCO [bis(2-hydroxyethyl)ammonium propanoate] + CCCO
[2]
Conditions | mass density, 293.15 K [kg/m3] | mass density, 303.15 K [kg/m3] | mass density, 313.15 K [kg/m3] | mass density, 323.15 K [kg/m3] | viscosity, 293.15 K [mPa·s] | viscosity, 303.15 K [mPa·s] | viscosity, 313.15 K [mPa·s] | viscosity, 323.15 K [mPa·s]
x1 = 0.0585 | 846.5 | 839 | 831.3 | 823.1 | 31.6 | 15.37 | 6.146 | 3.897
x1 = 0.1031 | 875.3 | 867.9 | 860.4 | 852.6 | 53.29 | 21.15 | 9.633 | 6.039
x1 = 0.2292 | 942.2 | 935 | 927.7 | 920.9 | 120.07 | 47.98 | 21.6 | 13.44
x1 = 0.3021 | 973.6 | 966.5 | 959.3 | 952.9 | 161.5 | 66.19 | 29.62 | 18.46
x1 = 0.4017 | 1010.3 | 1003.3 | 996.2 | 990.3 | 221.9 | 91.87 | 41.98 | 26.24
x1 = 0.5009 | 1041.2 | 1034.3 | 1027.3 | 1021.9 | 288.32 | 119.16 | 56.4 | 35.31
x1 = 0.636 | 1076.2 | 1069.4 | 1062.5 | 1057.6 | 393.08 | 163.5 | 80.35 | 50.21
x1 = 0.7135 | 1093.1 | 1086.4 | 1079.5 | 1074.8 | 461.84 | 194.52 | 96.42 | 60.05
x1 = 0.8018 | 1110.2 | 1103.5 | 1096.5 | 1092.1 | 547.5 | 234.75 | 116.23 | 72
x1 = 0.8979 | 1126.6 | 1119.9 | 1113 | 1108.8 | 646.69 | 281.11 | 138.08 | 84.93
x1 = 0.9568 | 1136 | 1129.3 | 1122.4 | 1118.4 | 701.08 | 304.98 | 149.64 | 92.03
x1 = 1 | 1142.7 | 1136.1 | 1129.2 | 1125.2 | 740.28 | 322.17 | 157.97 | 96.54

CCC(=O)[O-].OCC[NH2+]CCO [bis(2-hydroxyethyl)ammonium propanoate] + CCO
[2]
Conditions | mass density, 293.15 K [kg/m3] | mass density, 303.15 K [kg/m3] | mass density, 313.15 K [kg/m3] | mass density, 323.15 K [kg/m3] | viscosity, 293.15 K [mPa·s] | viscosity, 303.15 K [mPa·s] | viscosity, 313.15 K [mPa·s] | viscosity, 323.15 K [mPa·s]
x1 = 0.0536 | 842.7 | 834.4 | 826.6 | 818.5 | 28.36 | 14.2 | 5.271 | 3.309
x1 = 0.1087 | 887.2 | 879.2 | 871.7 | 864.2 | 55.19 | 21.36 | 9.602 | 5.974
x1 = 0.2052 | 947 | 939.4 | 932.2 | 925.5 | 105.81 | 41.43 | 18.6 | 11.54
x1 = 0.3168 | 997.5 | 990.1 | 983 | 977.1 | 167.85 | 68.6 | 30.49 | 18.98
x1 = 0.4238 | 1034.5 | 1027.3 | 1020.2 | 1014.8 | 231.31 | 95.16 | 43.46 | 27.2
x1 = 0.5084 | 1058.3 | 1051.2 | 1044.2 | 1039.1 | 284.44 | 116.45 | 54.87 | 34.45
x1 = 0.5946 | 1078.8 | 1071.8 | 1064.9 | 1060 | 343.18 | 140.21 | 68.08 | 42.81
x1 = 0.6965 | 1099.1 | 1092.3 | 1085.4 | 1080.8 | 428.04 | 177.51 | 88.08 | 55.22
x1 = 0.804 | 1116.8 | 1110 | 1103.1 | 1098.8 | 531.61 | 226.45 | 112.51 | 70.07
x1 = 0.8895 | 1128.8 | 1122 | 1115.1 | 1111 | 626.32 | 271.72 | 133.71 | 82.61
x1 = 0.9458 | 1136 | 1129.3 | 1122.4 | 1118.3 | 686.37 | 298.35 | 146.49 | 90.38
x1 = 1 | 1142.7 | 1136.1 | 1129.2 | 1125.2 | 740.28 | 322.17 | 157.97 | 96.54

CCC(=O)[O-].OCC[NH2+]CCO [bis(2-hydroxyethyl)ammonium propanoate] + CO
[2]
Conditions | mass density, 293.15 K [kg/m3] | mass density, 303.15 K [kg/m3] | mass density, 313.15 K [kg/m3] | mass density, 323.15 K [kg/m3] | viscosity, 293.15 K [mPa·s] | viscosity, 303.15 K [mPa·s] | viscosity, 313.15 K [mPa·s] | viscosity, 323.15 K [mPa·s]
x1 = 0.0437 | 851.2 | 842.3 | 833.3 | 826.8 | 23.19 | 13.01 | 4.242 | 2.639
x1 = 0.1045 | 913.4 | 905.2 | 896.9 | 891.1 | 52.44 | 20.18 | 8.903 | 5.509
x1 = 0.2138 | 987.8 | 980.3 | 972.6 | 967.8 | 109.39 | 42.76 | 19 | 11.76
x1 = 0.2957 | 1024.6 | 1017.4 | 1010 | 1005.5 | 153.61 | 62.12 | 27.33 | 16.99
x1 = 0.4 | 1058.1 | 1051.2 | 1044 | 1039.7 | 210.82 | 86.11 | 38.58 | 24.16
x1 = 0.5038 | 1082.4 | 1075.6 | 1068.6 | 1064.6 | 269.65 | 109.07 | 50.82 | 32.04
x1 = 0.6125 | 1101.8 | 1095.2 | 1088.3 | 1084.5 | 337.06 | 135.36 | 65.92 | 41.76
x1 = 0.6981 | 1114 | 1107.6 | 1100.9 | 1097.1 | 399.51 | 162.04 | 80.81 | 51.21
x1 = 0.8026 | 1126.4 | 1120 | 1113.3 | 1109.7 | 496.91 | 208.61 | 104.49 | 65.82
x1 = 0.9121 | 1136.5 | 1130.1 | 1123.4 | 1119.7 | 636.96 | 276.64 | 135.75 | 84.16
x1 = 0.9587 | 1140 | 1133.5 | 1126.8 | 1123 | 692.41 | 301.08 | 147.67 | 91.46
x1 = 1 | 1142.7 | 1136.1 | 1129.2 | 1125.2 | 740.28 | 322.17 | 157.97 | 96.54

CCO [ethanol]
[1]
Conditions | mass density [kg/m3] | viscosity [mPa·s]
293.15 K | 789.3 | 1.18
303.15 K | 780.7 | 1.019
313.15 K | 772.5 | 0.8424
323.15 K | 763.6 | 0.7081

CCO [ethanol] + CCC(=O)[O-].OCC[NH2+]CCO
[2], x2 = 0
Conditions | mass density [kg/m3] | viscosity [mPa·s]
293.15 K | 789.3 | 1.18
303.15 K | 780.7 | 1.019
313.15 K | 772.5 | 0.8424
323.15 K | 763.6 | 0.7081

CO [methanol]
[1]
Conditions | mass density [kg/m3] | viscosity [mPa·s]
293.15 K | 791.2 | 0.6075
303.15 K | 781.8 | 0.5535
313.15 K | 772.3 | 0.501
323.15 K | 765.1 | 0.4601

CO [methanol] + CCC(=O)[O-].OCC[NH2+]CCO
[2], x2 = 0
Conditions | mass density [kg/m3] | viscosity [mPa·s]
293.15 K | 791.2 | 0.6075
303.15 K | 781.8 | 0.5535
313.15 K | 772.3 | 0.501
323.15 K | 765.1 | 0.4601

CCCO [propan-1-ol]
[1]
Conditions | mass density [kg/m3] | viscosity [mPa·s]
293.15 K | 803.2 | 2.141
303.15 K | 795.5 | 1.788
313.15 K | 787.6 | 1.391
323.15 K | 778.7 | 1.098

CCCO [propan-1-ol] + CCC(=O)[O-].OCC[NH2+]CCO
[2], x2 = 0
Conditions | mass density [kg/m3] | viscosity [mPa·s]
293.15 K | 803.2 | 2.141
303.15 K | 795.5 | 1.788
313.15 K | 787.6 | 1.391
323.15 K | 778.7 | 1.098
